Reference: ChEMBL document CHEMBL1201862, “PubChem BioAssay data set” (2004)
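Briefly, cells in 96-well plates were exposed to five compound concentrations for 48 h, and endpoints were estimated by linear interpolation. Here, GI50 denotes the concentration required for 50% inhibition of growth.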 Active and inactive are the calls of the source. Rule as the data show it: active = GI50 up to about 1.1 µM and inactive = higher.

What was measured:
Experiment in all cases: NCI tumour cell line growth inhibition, 48 h
HOP-92 = test system: HOP-92
M19-MEL = test system: M19-MEL
MOLT-4 = test system: MOLT-4
K562 = test system: K562
HT-29 = test system: HT-29
SR = test system: SR
RXF 393 = test system: RXF 393
LXFL 529 = test system: LXFL 529
HCT-15 = test system: HCT-15
SF-295 = test system: SF-295
OVCAR-3 = test system: OVCAR-3
TK-10 = test system: TK-10
HCT-116 = test system: HCT-116
SN12C = test system: SN12C
KM-20L2 = test system: KM-20L2
HCC 2998 = test system: HCC 2998
OVCAR-8 = test system: OVCAR-8
NCI-H522 = test system: NCI-H522
SNB-75 = test system: SNB-75
SK-MEL-5 = test system: SK-MEL-5
DMS-273 = test system: DMS-273
HOP-62 = test system: HOP-62
DLD-1 = test system: DLD-1
U-251 = test system: U-251
EKVX = test system: EKVX
SF-268 = test system: SF-268
SK-MEL-28 = test system: SK-MEL-28
OVCAR-4 = test system: OVCAR-4
NCI-H226 = test system: NCI-H226
SK-MEL-2 = test system: SK-MEL-2
ACHN = test system: ACHN
COLO 205 = test system: COLO 205
NCI-H460 = test system: NCI-H460
UACC-257 = test system: UACC-257
HOP-18 = test system: HOP-18
SW-620 = test system: SW-620
Malme-3M = test system: Malme-3M
M14 = test system: M14
LOX IMVI = test system: LOX IMVI
RPMI-8226 = test system: RPMI-8226
DMS-114 = test system: DMS-114
OVCAR-5 = test system: OVCAR-5
CCRF-CEM = test system: CCRF-CEM
UO-31 = test system: UO-31
NCI-H23 = test system: NCI-H23
KM12 = test system: KM12
CAKI-1 = test system: CAKI-1
HL-60 = test system: HL-60
SNB-78 = test system: SNB-78
A549 = test system: A549
Hs-578T = test system: Hs-578T
UACC-62 = test system: UACC-62
SK-OV-3 = test system: SK-OV-3
XF498 = test system: XF498
PC-3 = test system: PC-3
MDA-N = test system: MDA-N
MDA-MB-435 = test system: MDA-MB-435
DU-145 = test system: DU-145
A498 = test system: A498
786-0 = test system: 786-0
SNB-19 = test system: SNB-19
MCF7 = test system: MCF7
NCI/ADR-RES = test system: NCI/ADR-RES
IGROV-1 = test system: IGROV-1
MDA-MB-231 = test system: MDA-MB-231
SF-539 = test system: SF-539

C#CCN1C(=O)CN2C(Cl)(Cl)C2(c2ccccc2)c2cc(Cl)ccc21 (stereo not given)
GI50 (HOP-92): 61800 nM (inactive)
GI50 (M19-MEL): 84300 nM (inactive)
GI50 (MOLT-4): 25100 nM (inactive)
GI50 (K562): 49800 nM (inactive)
GI50 (HT-29): 40900 nM (inactive)
GI50 (SR): 40300 nM (inactive)
GI50 (RXF 393): > 100000 nM (inactive)
GI50 (LXFL 529): > 100000 nM (inactive)
GI50 (HCT-15): 40600 nM
GI50 (SF-295): 65800 nM (inactive)
GI50 (OVCAR-3): 87500 nM (inactive)
GI50 (TK-10): 89900 nM (inactive)
GI50 (HCT-116): 42200 nM (inactive)
GI50 (SN12C): 37200 nM (inactive)
GI50 (KM-20L2): 33300 nM (inactive)
GI50 (HCC 2998): 31200 nM (inactive)
GI50 (OVCAR-8): > 100000 nM (inactive)
GI50 (NCI-H522): 35300 nM (inactive)
GI50 (SNB-75): > 10000 nM (inactive)
GI50 (SK-MEL-5): 51300 nM (inactive)
GI50 (DMS-273): 41700 nM (inactive)
GI50 (HOP-62): 50000 nM (inactive)
GI50 (DLD-1): 45300 nM (inactive)
GI50 (U-251): > 10000 nM (inactive)
GI50 (EKVX): 50400 nM (inactive)
GI50 (SF-268): 82000 nM (inactive)
GI50 (SK-MEL-28): > 100000 nM (inactive)
GI50 (OVCAR-4): 72100 nM (inactive)
GI50 (NCI-H226): 39700 nM (inactive)
GI50 (SK-MEL-2): 94400 nM (inactive)
GI50 (ACHN): 85900 nM (inactive)
GI50 (COLO 205): 54500 nM (inactive)
GI50 (NCI-H460): 54800 nM (inactive)
GI50 (UACC-257): 36300 nM (inactive)
GI50 (HOP-18): > 100000 nM (inactive)
GI50 (SW-620): 70300 nM (inactive)
GI50 (Malme-3M): > 100000 nM (inactive)
GI50 (M14): 49100 nM (inactive)
GI50 (LOX IMVI): 88100 nM (inactive)
GI50 (RPMI-8226): 70500 nM (inactive)
GI50 (DMS-114): 51500 nM (inactive)
GI50 (OVCAR-5): > 100000 nM (inactive)
GI50 (CCRF-CEM): 44300 nM (inactive)
GI50 (UO-31): 68100 nM (inactive)
GI50 (NCI-H23): 86700 nM (inactive)
GI50 (KM12): 28600 nM (inactive)
GI50 (CAKI-1): 30100 nM (inactive)

CC[C@]12C=CCN3CCC4(c5cc([C@@]6(C(=O)OC)CC7CN(CCc8c6[nH]c6ccccc86)CC6CCCCC67)c(OC)cc5N(C)C4[C@](O)(C(=O)OC)C1OC(C)=O)[C@@H]32 (stereo not given in full)
GI50 (HOP-92): < 10 nM (active)
GI50 (M19-MEL): < 10 nM (active)
GI50 (MOLT-4): < 10 nM (active)
GI50 (K562): < 10 nM (active)
GI50 (HT-29): < 10 nM (active)
GI50 (RXF 393): < 10 nM (active)
GI50 (LXFL 529): < 10 nM (active)
GI50 (HL-60): < 10 nM (active)
GI50 (HCT-15): 111 nM
GI50 (SF-295): < 10 nM (active)
GI50 (OVCAR-3): < 10 nM (active)
GI50 (SNB-78): < 10 nM (active)
GI50 (TK-10): 64.3 nM (active)
GI50 (HCT-116): < 10 nM (active)
GI50 (SN12C): < 10 nM (active)
GI50 (KM-20L2): < 10 nM (active)
GI50 (HCC 2998): < 10 nM (active)
GI50 (OVCAR-8): < 15 nM (active)
GI50 (NCI-H522): < 10 nM (active)
GI50 (A549): < 10 nM (active)
GI50 (SNB-75): < 10 nM (active)
GI50 (SK-MEL-5): < 10 nM (active)
GI50 (DMS-273): < 10 nM (active)
GI50 (HOP-62): < 10 nM (active)
GI50 (DLD-1): 26.9 nM (active)
GI50 (Hs-578T): < 10 nM (active)
GI50 (UACC-62): < 10 nM (active)
GI50 (SK-OV-3): < 10 nM (active)
GI50 (U-251): < 10 nM (active)
GI50 (EKVX): 743 nM (active)
GI50 (XF498): 46.9 nM (active)
GI50 (SF-268): < 10 nM (active)
GI50 (OVCAR-4): 3380 nM (inactive)
GI50 (NCI-H226): < 10 nM (active)
GI50 (SK-MEL-2): < 10 nM (active)
GI50 (PC-3): < 10 nM (active)
GI50 (ACHN): < 14.6 nM (active)
GI50 (COLO 205): < 10 nM (active)
GI50 (NCI-H460): < 10 nM (active)
GI50 (UACC-257): < 10 nM (active)
GI50 (SW-620): < 10 nM (active)
GI50 (MDA-N): < 10 nM (active)
GI50 (Malme-3M): < 10 nM (active)
GI50 (M14): < 10 nM (active)
GI50 (LOX IMVI): < 10 nM (active)
GI50 (RPMI-8226): < 10 nM (active)
GI50 (MDA-MB-435): < 10 nM (active)
GI50 (DMS-114): < 10 nM (active)
GI50 (DU-145): < 10 nM (active)
GI50 (A498): < 15 nM (active)
GI50 (786-0): < 10 nM (active)
GI50 (OVCAR-5): 21 nM (active)
GI50 (SNB-19): < 10 nM (active)
GI50 (MCF7): < 10 nM (active)
GI50 (CCRF-CEM): < 10 nM (active)
GI50 (NCI/ADR-RES): 186 nM (active)
GI50 (UO-31): 157 nM (active)
GI50 (NCI-H23): < 10 nM (active)
GI50 (IGROV-1): < 10 nM (active)
GI50 (MDA-MB-231): < 10 nM (active)
GI50 (KM12): < 10 nM (active)
GI50 (CAKI-1): < 25.2 nM (active)
GI50 (SF-539): < 10 nM (active)
